Results taken from patent publication US12274678B2, “Cannabinoids and uses thereof” (TECHNION RESEARCH & DEVELOPMENT FOUNDATION LIMITED, priority 2019, dated 2025).
Where a SMILES comes first, the peptide text is derived from it. [ ]: non-standard residue; d: D form. The star is where a group is joined. Nle = CCCC[C@H](N)C(=O)O; Cbz = O=C(OCc1ccccc1)*

Experiments:
Type in all cases: cell-based, human
MOLT-4 cells = assay: AlamarBlue cell viability assay, MOLT-4; conditions: CBD, CBDV, CF1 separately and in combinations, 24 h
Protocol: (§1) Cells were cultured in 96-well plates. At 100,000 cells/well the media was replaced with RPMI containing 0.5% FBS and different Cannabis extracts. Extracts were added in triplicate at a concentration of 1-5 μg/mL. DMSO was used as the control and applied in the same amount as in the diluted extracts. An alamarBlue® reagent was used to quantitate viability (according to the manufacturer's Instructions). Viability was measured following 24 h of incubation using fluorescence spectrophotometry at excitation and emission wavelengths of 560 and 590 nm, respectively. Viability was calculated as percent reduction between treated and control cells.

CCRF-CEM cells = assay: AlamarBlue cell viability assay, CCRF-CEM; conditions: CBD, CBDV, CF1 separately and in combinations, 24 h
Protocol: as §1

NICD [1] = assay: Immunoblotting of NICD protein in cells; conditions: MOLT-4 cells, 3 μg/mL, 24 h
Protocol: (§2) Cell Lysis and Western Blot Analyses
Following treatment, cells were solubilized in radioimmunoprecipitation assay buffer (RIPA) (Sigma-Aldrich, R0278) and the protein concentration in lysates were determined using a Bradford reagent (Sigma-Aldrich, B6916). Equal amounts of protein were resolved by Novex™ 4-20% Tris-Glycine Mini Gels (Thermo Fisher Scientific, XP04200BOX) and electrophoretically transferred to a nitrocellulose membrane (Bio-Rad, 1704159S). Membranes were blocked with TBS 0.1% Tween 20 buffer containing 5% bovine serum albumin (Sigma, A7906) for 1 h. The blots were then incubated overnight at 4° C. with Full Notch1 (Millipure ABS90), from Cell Signaling Technology Notch1 V1744 (4147S), c-Myc (13987), Hes1 (11988), anti-cleaved caspase-3 antibody (9664), Phospho-C-Jun (3270), C-Jun (9165), and β-tubulin (clone D3U1W, 86298) and Chac1 (ab76386) from abcam. This was followed by incubation with horseradish peroxidase-labeled matching secondary antibodies. Immunoreactive bands were detected by Luminata™ HRP substrate (Millipore, WBLUR0500) and visualized using a MicroChemi imager (DNR Bioimaging Systems).

NICD [2] = assay: Western blot of NICD in Molt-4 cells pretreated with proteasome inhibitors, then Extract 12; conditions: MOLT-4 cells pretreated 1 h (MG132 2.5-7.5 μM; MG101 10 μM), then Extract 12 5 μg/mL 3 h
Protocol: FIG. 14 is a micrograph of a western blot analysis of NICD in Molt-4 cells pretreated with MG132 (proteasome inhibitor; 0, 2.5 μM, 5 μM, 7.5 μM) for 1 h and then treated with vehicle or Extract 12 (5 μg/mL) for 3 h. β-tubulin served as a loading control.
FIG. 15 is a micrograph of western blot analysis of NICD in Molt-4 cells pretreated with MG101 (proteasome inhibitor; 0, 10 μM) for 1 h and then treated with vehicle or Extract 12 (5 μg/mL) for 3 h. β-tubulin served as a loading control.
as §2
Following treatment, cells were solubilized in radioimmunoprecipitation assay buffer (RIPA) (Sigma-Aldrich, R0278) and the protein concentration in lysates were determined using a Bradford reagent (Sigma-Aldrich, B6916). Equal amounts of protein were resolved by Novex™ 4-20% Tris-Glycine Mini Gels (Thermo Fisher Scientific, XP04200BOX) and electrophoretically transferred to a nitrocellulose membrane (Bio-Rad, 1704159S). Membranes were blocked with TBS 0.1% Tween 20 buffer containing 5% bovine serum albumin (Sigma, A7906) for 1 h. […] Immunoreactive bands were detected by Luminata™ HRP substrate (Millipore, WBLUR0500) and visualized using a MicroChemi imager (DNR Bioimaging Systems).

C=C(C)[C@@H]1CCC(C)=C[C@H]1c1c(O)cc(CCCCC)cc1O [CBD, cannabidiol, reference compound]
MOLT-4 cell death / cell apoptosis in viability assay of cannabinoids (MOLT-4 cells): produced cell apoptosis
CCRF-CEM cell apoptosis in viability assay of cannabinoids (CCRF-CEM cells): produced cell apoptosis
NICD levels after cannabinoids (NICD [1]): decreasing NICD levels

C=C(C)[C@@H]1CCC(C)=C[C@H]1c1c(O)cc(CCC)cc1O [CBDV, cannabidivarin]
MOLT-4 cell death / cell apoptosis in viability assay of cannabinoids (MOLT-4 cells): produced cell apoptosis
CCRF-CEM cell apoptosis in viability assay of cannabinoids (CCRF-CEM cells): produced cell apoptosis
NICD levels after cannabinoids (NICD [1]): decreasing NICD levels

CCCCCc1cc(O)c(C2C=C(C)CCC2C(C)(C)O)c(O)c1 [CF1, 1,3-Benzenediol, 2-[(1R,6R)-6-(1-hydroxy-1-methylethyl)-3-methyl-2cyclohexen-1-yl]-5-pentyl]
MOLT-4 cell death / cell apoptosis in viability assay of cannabinoids (MOLT-4 cells): produced cell apoptosis
CCRF-CEM cell apoptosis in viability assay of cannabinoids (CCRF-CEM cells): produced cell apoptosis
NICD levels after cannabinoids (NICD [1]): decreasing NICD levels

CCCC[C@@H](C=O)NC(=O)[C@H](CC(C)C)NC(=O)[C@H](CC(C)C)NC(C)=O [MG101] (Ac-Leu-Leu-[Nle]-aldehyde)
restoration of NICD protein level by proteasome inhibition (NICD [2]): did not restore

CC(C)C[C@@H](C=O)NC(=O)[C@H](CC(C)C)NC(=O)[C@H](CC(C)C)NC(=O)OCc1ccccc1 [MG132] (Cbz-Leu-Leu-Leu-aldehyde)
restoration of NICD protein level by proteasome inhibition (NICD [2]): did not restore
